{
  "source": "patent EP1010435A1",
  "about": "“NANOCAPSULE PREPARATIONS FOR TREATING INTRAARTICULAR DISEASES” (Maruho K.K., priority 1997, dated 1999)",
  "tested_on": "rabbit models in which adjuvant arthritis was induced with ovalbumin (FCA)",
  "experiment": "Rabbit adjuvant arthritis model, intra-articular administration simultaneously with boosting",
  "format": "in vivo, rabbits",
  "experimental": "Produced were rabbit models in which adjuvant arthritis was induced with ovalbumin (FCA) according to the method of E.R.Pettipher et al. (Br.J.Exp.Path., 69, 113-122, (1988)). Three weeks after sensitization, the models were boosted again with ovalbumin at knees. Simultaneously with boosting, the sample of the present invention was administered in articular cavities.\nAn aqueous solution of betamethasone sodium phosphate so prepared that the amount of the medicament (BSP) was the same, 3mg, and physiological saline alone were administered in articular cavities as a control and as a blank test, respectively, simultaneously with boosting.\nThe outside diameter of the knees of rabbits were measured with a caliper 1 day, 3 days, 7 days, 14 days, 21 days, 28 days, 35 days and 42 days after administration. Skin temperature at the knees was measured with a contact-type surface thermometer.\nThe outside diameter of the knees and temperature measured with time are shown as values obtained by subtracting reference values from the measured values. The reference values are those before the boosting at the knees.\nFurther, blood was collected from rabbits 2 weeks, 4 weeks and 6 weeks after boosting, and the production of antibodies for ovalbumin was mesured by the ELISA method (according to the same reference by E.R.Pettipher). In addition, 6 weeks after boosting, the knee joints of rabbits are opened, and the inside of the articular cavities and surrounding tissue were morphologically observed.",
  "data": [
    {"smiles": "C[C@H]1C[C@H]2[C@@H]3CCC4=CC(=O)C=C[C@]4(C)[C@@]3(F)[C@@H](O)C[C@]2(C)[C@@]1(O)C(=O)COP(=O)(O)O", "note": "[betamethasone sodium phosphate]", "values": [
      {"measurement": "temperature of knees (surface skin temperature, increase)", "setting": "1 to 42 days after administration, 3 mg BSP intra-articular", "result": "fever due to inflammation was suppressed"},
      {"measurement": "swell of knees (outside diameter, increase over value before boosting), later course", "setting": "after day 1 up to 5 weeks and later, 3 mg BSP intra-articular", "result": "almost the same swell as in the case of physiological saline"},
      {"measurement": "swell of knees (outside diameter, increase over value before boosting)", "setting": "one day after intra-articular administration, 3 mg BSP", "result": "suppressed"}
    ]}
  ]
}
